Reference: patent US6197802A, “Fungicidal melithiazole derivatives” (American Cyanamid Co., priority 1997, dated 2001)
In brackets after ≈: the same amount, converted by molar mass. Like-named read-outs stand apart in the source and are kept apart here.

Key:
[1] = system: mouse fibroblasts (cell line L929); test: Toxicity using mouse fibroblasts (cell line L929); type: cell-based; conditions: for Therapeutic Index: ratio toxicity IC50 (L929) / BOC-MIC
From the text: In addition, the toxicity IC50 of these compounds has been evaluated using mouse fibroblasts (cell line L929). The therapeutic index given is defined as the ratio between the toxicity and the BOC-MIC value (IC50 /MIC).

[2] = system: Hansenula anomala; test: Serial dilution test, Minimum Inhibitory Concentration, Hansenula anomala (HNA); type: cell-based; conditions: read-out: MIC (HNA)
Experimental: (§1) Determination of Minimum Inhibitory Concentration by Test Compounds in the Serial Dilution Test with Botrytis cinera (BOC), and Hansenula anomala (HNA).
(§2) The MIC (Minimum Inhibitory Concentration) value, which indicates the lowest concentration of the active ingredient in the growth medium which causes a total inhibition of mycelial growth, is determined by serial dilution tests. The compounds of the invention have been compared with known melithiazole C. melithiazole C-amide and with the commercially available strobilurines kresoxim-methyl (BASF AG) and azoxystrobin (ZENECA).

[3] = system: Botrytis cinera; test: Serial dilution test, Minimum Inhibitory Concentration, Botrytis cinera (BOC); type: cell-based; conditions: read-out: MIC (BOC)
Experimental: as §1, §2

[4] = system: powdery mildew (Erysiphe graminis) on wheat; test: Foliar systemicity in wheat leaves, wheat powdery mildew as indicator disease; conditions: for Systemicity distal (disease free zone) / Systemicity proximal (disease free zone): wheat leaves, band application of 400 ppm solution; for Systemicity distal (disease free zone): toward leaf apex; for Systemicity proximal (disease free zone): toward leaf base
From the text: Foliar systemicity: When the primary leaves of wheat planted in 8 cm diameter pots in the greenhouse were fully expanded, the plants were cut back to four leaves in each pot of which two were marked with a permanent marker 5 cm below the leaf tip on the upper leaf surface. Thus there were two band-treated and two untreated plants in each pot. […] The application band covered the whole leaf width. After application and after the bands were dried, the plants were moved to the greenhouse and kept there for 2 days to allow for movement of the compounds. The plants were kept by bottom watering. The plants were then inoculated by dusting them with powdery mildew conidia (Erysiphe graminis). Evaluations were made 7-8 days after inoculation. Distal and proximal movement were assessed as follows: The distal and proximal disease free zones on the upper leaf surface were measured in mm. The distal direction is from the band toward the leaf apex and the proximal direction is from the band towards the leaf base.

[5] = system: phytopathogenic fungi; test: Curative in-vivo tests, overall statement; conditions: overall statement in words
Experimental: Test Plants: Test plants were grown up in the greenhouse. Either seed, pregerminated seed or rooted vegetative plant material was planted in pots containing a fertilized soil/peat mixture. Test plants were used for treating them with the various fungicides when they were in the 3-4 leaf stage. The number of leaves of vegetatively propagated plant material was cut back to 3-4 leaves per plant.
Application: Test plants were treated with fungicides either 1 or 3 days before (protective treatments) or 2 or 3 days after (curative treatments) the inoculation with a pathogen. The test compounds were applied to the test plants using a lateral-nozzle sprayer with a turntable rotating the pots, or the test compounds were applied with an hand-held airbrush. 24 plants were used per treatment.
Compounds: Technical material of the compound according to the invention coded MCM, and of commercially available strobilurines kresoxim-methyl (BASF) and azoxystrobin (ZENECA) was dissolved in acetone with 0.5% Triton X155 at a concentration of 0.5%. […]
Assessment of diseases: The percentage of leaf area infected was assessed by visual estimation when untreated control plants were just completely diseased. Each plant was individually evaluated and then the mean infection rating was calculated for each treatment. The fungicidal activity was calculated using the following formula: [formula] […]

[6] = system: Plasmopara viticola; test: Curative (2 d cur) activity, grape downy mildew (GDM); type: in vivo; conditions: 2 d curative
[7] = system: Phytophthora infestans; type: in vivo; conditions: 1 d protective
[8] = system: Pyrenophora teres; test: Protective (1 d res) activity, barley net blotch (BNB); type: in vivo; conditions: 1 d protective
[9] = system: Plasmopara viticola; test: Protective (1 d res) activity, grape downy mildew (GDM); type: in vivo; conditions: 1 d protective
[10] = system: Bortrytis cinera; conditions: poster of B. Bohlendorf et al., 1996; cited from earlier work
[11] = toxicity, mouse fibroblasts L929, read-out: IC50
[12] = total inhibition of mycelial growth
[13] = Botrytis cinera, total inhibition of mycelial growth

## CCOC(=O)/C=C(/OC)[C@H](C)[C@H](/C=C/c1csc(C(C)=NOC)n1)OC (mixture of isomers) [(E/Z)-(13/14)]
[1]
  Therapeutic Index: 40
[1]; [11]
  IC50: 0.2 µg/mL
[2]; [12]
  MIC: 0.02 µg/mL
[3]; [13]
  MIC: 0.005 µg/mL

## CON=C(C)c1nc(/C=C/[C@H](OC)[C@@H](C)/C(=C\C(=O)OC)OC)cs1 (mixture of isomers) [MCM]
[4]; overall statement in words
  foliar systemicity: better than that of the commercialized strobilurine derivatives kresoxim-methyl and azoxystrobin
[4]; plant, implied by foliar systemicity and curative values
  bioavailable: readily and highly bioavailable
[4]
  Systemicity distal (disease free zone): 50 mm
  Systemicity proximal (disease free zone): 21 mm
[5]
  curative activity: better than that of the commercialized strobilurine derivatives kresoxim-methyl and azoxystrobin
[6]; dose 4 ppm
  activity (%) GDM 2d cur: 0%
[6]; dose 20 ppm
  activity (%) GDM 2d cur: 59%
[7]; dose 4 ppm
  activity (%) TLB 1 d res: 25%
[7]; dose 20 ppm
  activity (%) TLB 1 d res: 65%
[8]; dose 4 ppm
  activity (%) BNB 1 d res: 100%
[8]; dose 20 ppm
  activity (%) BNB 1 d res: 100%
[9]; dose 4 ppm
  activity (%) GDM 1 d res: 92%
[9]; dose 20 ppm
  activity (%) GDM 1 d res: 100%

## CO/C(=C/C(N)=O)[C@H](C)[C@H](/C=C/c1csc(C(C)=O)n1)OC [1:melithiazole C-amide, 7-(2-acetylthiazol-4-yl)-3,5-dimethoxy-4-methylheptan-2,6-dienoic amide, reference compound]
[1]
  Therapeutic Index: < 0.8
[1]; [11]
  IC50: 8 µg/mL (≈ 24.7 µM)
[2]; [12]
  MIC: > 10 µg/mL
[3]; [13]
  MIC: > 10 µg/mL

## COC(=O)/C=C(/OC)[C@H](C)[C@H](/C=C/c1csc(C(C)=O)n1)OC [2:melithiazole C, methyl 7-(2-acetylthiazol-4-yl)-3,5-dimethoxy-4-methylheptan-2,6-dienoate, reference compound]
[1]
  Therapeutic Index: 0.37
[1]; [11]
  IC50: 0.55 µg/mL (≈ 1.62 µM)
[10]
  in vitro activity against Bortrytis cinera: weak in vitro activity
[2]; [12]
  MIC: 3 µg/mL (≈ 8.84 µM)
[3]; [13]
  MIC: 1.5 µg/mL (≈ 4.42 µM)

## CO/N=C(\C)c1nc(/C=C/[C@H](OC)[C@@H](C)/C(=C\C(=O)OC)OC)cs1 [8:(E)-MCM]
[1]
  Therapeutic Index: 160
[1]; [11]
  IC50: 0.4 µg/mL (≈ 1.09 µM)
[2]; [12]
  MIC: 0.08 µg/mL (≈ 0.217 µM)
[3]; [13]
  MIC: 0.0025 µg/mL (≈ 0.00679 µM)

## CO/N=C(/C)c1nc(/C=C/[C@H](OC)[C@@H](C)/C(=C\C(=O)OC)OC)cs1 [8:(Z)-MCM]
[1]
  Therapeutic Index: 100
[1]; [11]
  IC50: 0.5 µg/mL (≈ 1.36 µM)
[2]; [12]
  MIC: 0.08 µg/mL (≈ 0.217 µM)
[3]; [13]
  MIC: 0.005 µg/mL (≈ 0.0136 µM)

## COC(=O)/C=C(/OC)[C@H](C)[C@H](/C=C/c1csc(/C(C)=N\OCc2ccccc2)n1)OC [Example 9]
[1]
  Therapeutic Index: 3.33
[1]; [11]
  IC50: 0.5 µg/mL (≈ 1.12 µM)
[2]; [12]
  MIC: 0.6 µg/mL (≈ 1.35 µM)
[3]; [13]
  MIC: 0.15 µg/mL (≈ 0.337 µM)

## COC(=O)/C=C(/OC)[C@H](C)[C@H](/C=C/c1csc(/C(C)=N/OCc2ccccc2)n1)OC [Example 10]
[1]
  Therapeutic Index: 1.25
[1]; [11]
  IC50: 0.05 µg/mL (≈ 0.112 µM)
[2]; [12]
  MIC: 0.3 µg/mL (≈ 0.675 µM)
[3]; [13]
  MIC: 0.04 µg/mL (≈ 0.09 µM)

## COC(=O)/C=C(/OC)[C@H](C)[C@H](/C=C/c1csc(C(C)OC(C)=O)n1)OC (some centres unmarked) [Example 20, Methyl 7-[2-(1-acetoxyethyl)thiazol-4-yl]-3,5-dimethoxy-4-methylheptan-2,6-dienoate]
[1]
  Therapeutic Index: > 13.33
[1]; [11]
  IC50: > 4 µg/mL
[2]; [12]
  MIC: 1.25 µg/mL (≈ 3.26 µM)
[3]; [13]
  MIC: 0.3 µg/mL (≈ 0.782 µM)

## COC(=O)/C=C(/OC)[C@H](C)[C@H](/C=C/c1csc(C(C)OC)n1)OC (some centres unmarked) [Example 21, Methyl 7-[2-(1-methoxyethyl)thiazol-4-yl]-3,5-dimethoxy-4-methylheptan-2,6-dienoate]
[1]
  Therapeutic Index: 13.33
[1]; [11]
  IC50: 2 µg/mL (≈ 5.63 µM)
[2]; [12]
  MIC: 0.08 µg/mL (≈ 0.225 µM)
[3]; [13]
  MIC: 0.15 µg/mL (≈ 0.422 µM)

## C=C(C)c1nc(/C=C/[C@H](OC)[C@@H](C)/C(=C\C(=O)OC)OC)cs1 [Example 29, Methyl 7-[2-isopropenylthiazol-4-yl]-3,5-dimethoxy-4-methylheptan-2,6-dienoate]
[1]; Mus musculus, L929
  IC50: 2 µg/mL (≈ 5.93 µM)
[1]
  Therapeutic Index: 100
[2]
  MIC: 0.3 µg/mL (≈ 0.889 µM)
[3]; Botrytis
  MIC: 0.02 µg/mL (≈ 0.0593 µM)

## COC(=O)/C=C(/OC)[C@H](C)[C@H](/C=C/c1csc(C2(C)CO2)n1)OC (some centres unmarked) [Example 41, Methyl 7-[2-(1,2-epoxy-1-methylethyl)thiazol-4-yl]-3,5-dimethoxy-4-methylheptan-2,6-dienoate]
[1]; Mus musculus, L929
  IC50: > 3.7 µg/mL
[1]
  Therapeutic Index: > 6.17
[2]
  MIC: 5 µg/mL (≈ 14.1 µM)
[3]; Botrytis
  MIC: 0.6 µg/mL (≈ 1.7 µM)

## CO/C=C(/C(=O)OC)c1ccccc1Oc1cc(Oc2ccccc2C#N)ncn1 [azoxystrobin, reference compound]
[4]
  Systemicity distal (disease free zone): 43 mm
  Systemicity proximal (disease free zone): 9 mm

## CO/N=C(/C(=O)OC)c1ccccc1COc1ccccc1C [kresoxim-methyl, reference compound]
[4]
  Systemicity distal (disease free zone): 23 mm
  Systemicity proximal (disease free zone): 13 mm
[1]
  Therapeutic Index: 3.75
[1]; [11]
  IC50: 0.375 µg/mL (≈ 1.2 µM)
[6]; dose 4 ppm
  activity (%) GDM 2d cur: 0%
[6]; dose 20 ppm
  activity (%) GDM 2d cur: 9%
[8]; dose 4 ppm
  activity (%) BNB 1 d res: 97%
[8]; dose 20 ppm
  activity (%) BNB 1 d res: 98%
[3]; [13]
  MIC: 0.1 µg/mL (≈ 0.319 µM)
[9]; dose 4 ppm
  activity (%) GDM 1 d res: 39%
[9]; dose 20 ppm
  activity (%) GDM 1 d res: 87%
